This note sets out measurements from patent US8735406B2, “8-oxodihydropurine derivative” (Dainippon Sumitomo Pharma Co., Ltd., priority 2009, dated 2014).

The target in the experiment is T1, FAAH (Rattus norvegicus, UniProt P97612).
T1 construct: Preparation of Rat Brain Membranes Preparations (FAAH Enzyme Solution); from tissue; host or cells: rat cerebrum (brain membrane preparation)
T1 sequence (P97612 1-579): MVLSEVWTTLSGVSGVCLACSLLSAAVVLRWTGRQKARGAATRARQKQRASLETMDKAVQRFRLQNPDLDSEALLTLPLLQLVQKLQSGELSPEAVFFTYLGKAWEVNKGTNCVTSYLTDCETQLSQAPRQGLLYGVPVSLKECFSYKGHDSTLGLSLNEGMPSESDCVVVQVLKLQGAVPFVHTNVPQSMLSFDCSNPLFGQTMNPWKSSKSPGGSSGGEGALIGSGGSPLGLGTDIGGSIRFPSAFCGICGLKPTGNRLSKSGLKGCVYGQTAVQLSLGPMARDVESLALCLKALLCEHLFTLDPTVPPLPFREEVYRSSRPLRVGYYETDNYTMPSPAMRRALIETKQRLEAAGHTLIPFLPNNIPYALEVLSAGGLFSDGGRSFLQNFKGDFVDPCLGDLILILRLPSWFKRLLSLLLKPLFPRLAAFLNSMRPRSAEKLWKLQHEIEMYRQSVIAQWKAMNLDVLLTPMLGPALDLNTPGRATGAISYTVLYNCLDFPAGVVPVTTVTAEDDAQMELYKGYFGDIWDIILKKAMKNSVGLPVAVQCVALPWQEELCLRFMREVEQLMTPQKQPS
Nature of the experiment: Determination of FAAH inhibitory activity in rat (rat brain membrane preparations, [3H]-anandamide hydrolysis). The experiment is classed as biochemical. As to conditions: rat brain membrane preparations; for inhibition at 0.1 µM: 100 nM test substance, read-out: FAAH Inhibition, Inhibition Rate at 100 nM; for IC50: test substance 0.1 nM to 1 μM, read-out: FAAH Inhibition IC50. The essentials:
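Compounds tested from 0.1 nM to 1 μM to derive IC50 against FAAH hydrolysis in rat brain membrane preparations (100 μg/mL). A 10-min 37 °C preincubation was followed by 10 min with [3H]-anandamide (2 nM) mixed with 2 μM unlabelled anandamide. Radioactive ethanolamine was extracted into the water/methanol layer and counted.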

Regarding `COc1ccc(-c2ncc3c(n2)n(C(=O)N2CCCC2)c(=O)n3C)cc1` [Example 231, 2-(4-Methoxyphenyl)-7-methyl-9-(pyrrolidin-1-ylcarbonyl)-7,9-dihydro-8H-purine-8-one], the inhibition (as a rule, the drop in the measured response relative to a control, in per cent) at 0.1 µM was determined as 91% and the IC50 (in general, the concentration that inhibits the measured activity by half) came to 51 nM.

For the compound `CCOc1cccc(-c2ncc3c(n2)n(C(=O)N2CCCC2)c(=O)n3C)c1` [Example 232, 2-(3-ethoxyphenyl)-7-methyl-9-(pyrrolidin-1-ylcarbonyl)-7,9-dihydro-8H-purine-8-one], the inhibition at 0.1 µM was 101% and the IC50 came to 20 nM.

Consider `CCOc1ccc(-c2ncc3c(n2)n(C(=O)N2CCCC2)c(=O)n3C)cc1` [Example 233, 2-(4-Ethoxyphenyl)-7-methyl-9-(pyrrolidin-1-ylcarbonyl)-7,9-dihydro-8H-purine-8-one], for which the inhibition at 0.1 µM turned out to be 97% and the IC50 is 40 nM.

In the case of `Cn1c(=O)n(C(=O)N2CCCC2)c2nc(-c3cccc(C(F)(F)F)c3)ncc21` [Example 234, 7-Methyl-9-(pyrrolidin-1-ylcarbonyl)-2-[3-(trifluoromethyl)phenyl]-7,9-dihydro-8H-purine-8-one], the inhibition at 0.1 µM turned out to be 100% and the IC50 turned out to be 9 nM.

As for `Cn1c(=O)n(C(=O)N2CCCC2)c2nc(-c3ccc(C(F)(F)F)cc3)ncc21` [Example 235, 7-Methyl-9-(pyrrolidin-1-ylcarbonyl)-2-[4-(trifluoromethyl)phenyl]-7,9-dihydro-8H-purine-8-one], the inhibition at 0.1 µM was found to be 98% and the IC50 was 39 nM.

Take `Cn1c(=O)n(C(=O)N2CCCC2)c2nc(-c3cccc(OC(F)(F)F)c3)ncc21` [Example 236, 7-Methyl-9-(pyrrolidin-1-ylcarbonyl)-2-[3-(trifluoromethoxy)phenyl]-7,9-dihydro-8H-purine-8-one]: the inhibition at 0.1 µM came to 100% and the IC50 was determined as 6 nM.

In the case of `Cn1c(=O)n(C(=O)N2CCCC2)c2nc(-c3ccc(OC(F)(F)F)cc3)ncc21` [Example 237, 7-Methyl-9-(pyrrolidin-1-ylcarbonyl)-2-[4-(trifluoromethoxy)phenyl]-7,9-dihydro-8H-purine-8-one], the inhibition at 0.1 µM is 98% and the half-inhibitory concentration (IC50) is 32 nM.

For the compound `CC(=O)c1cccc(-c2ncc3c(n2)n(C(=O)N2CCCC2)c(=O)n3C)c1` [Example 238, 2-(3-Acetylphenyl)-7-methyl-9-(pyrrolidin-1-ylcarbonyl)-7,9-dihydro-8H-purine-8-one], the inhibition at 0.1 µM turned out to be 84% and the IC50 was determined as 58 nM.

Take `Cn1c(=O)n(C(=O)N2CCCC2)c2nc(-c3ccc(-c4ccccc4)cc3)ncc21` [Example 239, 2-(Biphenyl-4-yl)-7-methyl-9-(pyrrolidin-1-ylcarbonyl)-7,9-dihydro-8H-purine-8-one]: the inhibition at 0.1 µM stood at 89% and the IC50 turned out to be 52 nM.

In the case of `Cn1c(=O)n(C(=O)N2CCCC2)c2nc(/C=C/c3ccccc3)ncc21` [Example 241, 7-Methyl-2-[(E)-2-phenylethenyl]-9-(pyrrolidin-1-ylcarbonyl)-7,9-dihydro-8H-purine-8-one], the inhibition at 0.1 µM came out at 94% and the IC50 turned out to be 43 nM.

`Cn1c(=O)n(C(=O)N2CCCC2)c2nc(/C=C/c3ccc(C(F)(F)F)cc3)ncc21` [Example 243, 7-methyl-9-(pyrrolidin-1-ylcarbonyl)-2-{(E)-2-[4-(trifluoromethyl)phenyl]ethenyl}-7,9-dihydro-8H-purine-8-one]: the inhibition at 0.1 µM came to 89% and the IC50 is 5 nM.

As for `Cn1c(=O)n(C(=O)N2CCCC2)c2nc(/C=C/c3cccc(C(F)(F)F)c3)ncc21` [Example 244, 7-Methyl-9-(pyrrolidin-1-ylcarbonyl)-2-{(E)-2-[3-(trifluoromethyl)phenyl]ethenyl}-7,9-dihydro-8H-purine-8-one], the inhibition at 0.1 µM turned out to be 86% and the IC50 stood at 11 nM.

With `Cn1c(=O)n(C(=O)N2CCCC2)c2nc(/C=C/c3ccc(F)cc3)ncc21` [Example 245, 2-[(E)-2-(4-Fluorophenyl)ethenyl]-7-methyl-9-(pyrrolidin-1-ylcarbonyl)-7,9-dihydro-8H-purine-8-one], the inhibition at 0.1 µM was found to be 80% and the IC50 was 58 nM.

Take `Cn1c(=O)n(C(=O)N2CCCC2)c2nc(/C=C/c3cccc(F)c3)ncc21` [Example 246, 2-[(E)-2-(3-Fluorophenyl)ethenyl]-7-methyl-9-(pyrrolidin-1-ylcarbonyl)-7,9-dihydro-8H-purine-8-one]: the inhibition at 0.1 µM came out at 98% and the IC50 worked out at 23 nM.

Take `COc1cccc(/C=C/c2ncc3c(n2)n(C(=O)N2CCCC2)c(=O)n3C)c1` [Example 247, 2-[(E)-2-(3-Methoxyphenyl)ethenyl]-7-methyl-9-(pyrrolidin-1-ylcarbonyl)-7,9-dihydro-8H-purine-8-one]: the inhibition at 0.1 µM was determined as 97% and the half-maximal inhibitory concentration (IC50) stood at 39 nM.

As to `Cn1c(=O)n(C(=O)N2CCCC2)c2nc(-c3cccnc3)ncc21` [Example 248], the inhibition at 0.1 µM was 33% and the IC50 is over 100 nM.

Turning to `Cn1c(=O)n(C(=O)N2CCCC2)c2nc(-c3ccc(F)nc3)ncc21` [Example 249], the inhibition at 0.1 µM amounted to 55% and the IC50 was 91 nM.

With `COc1ccc(-c2ncc3c(n2)n(C(=O)N2CCCC2)c(=O)n3C)cn1` [Example 250, 2-(6-Methoxypyridin-3-yl)-7-methyl-9-(pyrrolidin-1-ylcarbonyl)-7,9-dihydro-8H-purine-8-one], the inhibition at 0.1 µM came to 78% and the IC50 amounted to 63 nM.

With `COc1cncc(-c2ncc3c(n2)n(C(=O)N2CCCC2)c(=O)n3C)c1` [Example 251], the inhibition at 0.1 µM was 28% and the IC50 was over 100 nM.

Turning to `Cn1c(=O)n(C(=O)N2CCCC2)c2nc(-c3ccncc3)ncc21` [Example 252], the inhibition at 0.1 µM was determined as 40% and the IC50 was over 100 nM.

As to `Cn1c(=O)n(C(=O)N2CCCC2)c2cnc(Cc3ccccc3)nc21` [Example 253, 2-benzyl-9-methyl-7-(pyrrolidin-1-ylcarbonyl)-7,9-dihydro-8H-purine-8-one], the inhibition at 0.1 µM was determined as 100% and the IC50 was determined as 5 nM.

As for `Cn1c(=O)n(C(=O)N2CCCC2)c2cnc(Cc3ccccc3F)nc21` [Example 254, 2-(2-Fluorobenzyl)-9-methyl-7-(pyrrolidin-1-ylcarbonyl)-7,9-dihydro-8H-purine-8-one], the inhibition at 0.1 µM was determined as 98% and the IC50 stood at 33 nM.

In the case of `Cn1c(=O)n(C(=O)N2CCCC2)c2cnc(Cc3cccc(F)c3)nc21` [Example 255, 2-(3-Fluorobenzyl)-9-methyl-7-(pyrrolidin-1-ylcarbonyl)-7,9-dihydro-8H-purine-8-one], the inhibition at 0.1 µM was determined as 100% and the IC50 turned out to be 14 nM.

With `Cn1c(=O)n(C(=O)N2CCCC2)c2cnc(Cc3ccc(F)cc3)nc21` [Example 256, 2-(4-Fluorobenzyl)-9-methyl-7-(pyrrolidin-1-ylcarbonyl)-7,9-dihydro-8H-purine-8-one], the inhibition at 0.1 µM was 99% and the IC50 is 7 nM.

For `Cc1ccccc1Cc1ncc2c(n1)n(C)c(=O)n2C(=O)N1CCCC1` [Example 257, 9-Methyl-2-(2-methylbenzyl)-7-(pyrrolidin-1-ylcarbonyl)-7,9-dihydro-8H-purine-8-one], the inhibition at 0.1 µM is 88% and the IC50 was 51 nM.

For the compound `Cc1cccc(Cc2ncc3c(n2)n(C)c(=O)n3C(=O)N2CCCC2)c1` [Example 258, 9-Methyl-2-(3-methylbenzyl)-7-(pyrrolidin-1-ylcarbonyl)-7,9-dihydro-8H-purine-8-one], the inhibition at 0.1 µM is 98% and the IC50 turned out to be 40 nM.

On to `COc1cccc(Cc2ncc3c(n2)n(C)c(=O)n3C(=O)N2CCCC2)c1` [Example 261, 2-(3-Methoxybenzyl)-9-methyl-7-(pyrrolidin-1-ylcarbonyl)-7,9-dihydro-8H-purine-8-one], for which the inhibition at 0.1 µM turned out to be 100% and the half-maximal inhibitory concentration (IC50) was 16 nM.

As for `COc1ccc(Cc2ncc3c(n2)n(C)c(=O)n3C(=O)N2CCCC2)cc1` [Example 262, 2-(4-Methoxybenzyl)-9-methyl-7-(pyrrolidin-1-ylcarbonyl)-7,9-dihydro-8H-purine-8-one], the inhibition at 0.1 µM was 99% and the IC50 amounted to 24 nM.

In the case of `Cn1c(=O)n(C(=O)N2CCCC2)c2cnc(Cc3ccc(-c4ccccc4)cc3)nc21` [Example 265, 2-(Biphenyl-4-ylmethyl)-9-methyl-7-(pyrrolidin-1-ylcarbonyl)-7,9-dihydro-8H-purine-8-one], the inhibition at 0.1 µM is 98% and the IC50 stood at 9 nM.

On to `Cn1c(=O)n(C(=O)N2CCCC2)c2cnc(Cc3ccc(F)cc3F)nc21` [Example 266, 2-(2,4-Difluorobenzyl)-9-methyl-7-(pyrrolidin-1-ylcarbonyl)-7,9-dihydro-8H-purine-8-one], for which the inhibition at 0.1 µM came to 92% and the IC50 stood at 41 nM.
